# Experimental data taken from patent publication US20190357555A1, “BLUEBERRY FRESH-KEEPING AGENT, PREPARATION METHOD AND APPLICATIONS THEREOF” (ZHEJIANG ACADEMY OF AGRICULTURAL SCIENCES, priority 2018, published 2019).
# System: Botrytis cinerea
# Experiment: Filter-paper inhibition zone test against Botrytis cinerea
# Assay type: cell-based
# Conditions: PDA, 28° C., 6 days; for inhibition zone diameter: filter paper 1 cm soaked 4 hours; for inhibitory effect on Botrytis cinerea (in words): filter paper test
# Method: Test species and reagents: Botrytis cinerea was isolated from the picked blueberries in the laboratory, and chitosan and ascorbic acid were purchased commercially.
# Medium and culture conditions: a PDA medium was used, and cultured at 28° C. for 6 days.
# Antibacterial effect test: after Botrytis cinerea was activated with the PDA medium, lawn of Botrytis cinerea was picked up and suspended with sterile water to obtain a bacterial suspension. Scraps of filter paper with a diameter of 1 cm were made from a highly absorbent filter paper by using a puncher, and the scraps of filter paper were subjected to dry heat sterilization and soaked in the Galla chinensis extract, a chitosan solution, and an ascorbic acid solution, respectively, and dried for use after 4 hours soaking. The solid PDA medium was melted, poured into a culture dish, cooled and solidified, then 0.1 mL of the bacterial suspension was added and uniformly coated, and then the scraps of filter paper soaked with the above solutions were attached to the bacteria-containing culture dish, and a scrap of filter paper impregnated with sterile water was used as a control. The culture dish treated above was cultured at 28° C. for 6 days, and the diameters of inhibition zones were measured.
SMILES,inhibition zone diameter,inhibitory effect on Botrytis cinerea (in words)
O=C1O[C@H]([C@@H](O)CO)C(O)=C1O [ascorbic acid],0.00 mm,no inhibitory effect
O=C(O)c1cc(O)c(O)c(O)c1 [gallic acid],0.00 mm,no inhibitory effect
